Experiment: X-ray diffraction of hydrated amphiphile and phosphatidylcholine mixtures at constant osmotic pressure
Format: physicochemical
Conditions: 20° C., constant osmotic pressure 1.6×10^5 dyne/cm^2; 20 mole percent Oleoyl-PEG(1500)-Oleoyl; pure SOPC = 0 mole % additive
Source text: Unoriented multilamellar fully hydrated lipid preparations in sealed glass capillaries held in a point collimated X-ray beam produce recordable “powder” diffraction patterns. The overall lamellar repeat period calculated from X-ray diffraction pattern comprises discernible double lipid chain thickness and interbilayer separation arising from the aqueous fluid in contact with the polar head groups. For osmotically stressed multilamellar preparations, the interbilayer separation decreases as a function of applied pressure and reaches a minimum approaching the closest contact for the head groups of the opposing phospholipids. […]
In the multilamellar vesicles prepared from phospholipid compositions doped with the novel amphiphiles, the bulky head group residues are expected to reside in and enlarge (widen) the interbilayer gap. Therefore, in comparative studies on preparations with and without a selected amphiphile, the interbilayer repeat distances are measured. In addition, the effect of osmotic pressures, produced by 4% PVP (up to ca. 1.6×10^5 dyne/cm^2), is evaluated. […]
X-ray diffraction was used to characterize the liposomes (MLVs) prepared in EXAMPLE 1 by hydration of selected novel amphiphile and PC mixtures. […] Osmotic pressures for PVP solutions are recorded in the literature (Parsegian et al., 1986). […]

CCCCCCCC/C=C\CCCCCCCC(=O)O[C@H](COC(=O)CCCCCCCCCCCCCCCCC)COP(=O)([O-])OCC[N+](C)(C)C [SOPC, 1-stearoyl-2-oleoyl-sn-glycero-3-phosphocholine]
lamellar repeat period d100 in SOPC as a function of mole percent additive: 58 Å

Source: US7368129B1, “Amphiphilic materials and liposome formulations thereof” (Nutrimed Biotech, priority 1996, dated 2008)
